Experiments:
LNCaP cells = test: Cell viability assay (MTS) in LNCaP cells; type: cell-based; conditions: doses 1 μM to 80 μM
Procedure: Cell line LNCaP was used for this assay. LNCaP cells were plated in 96-well plates at a density of 5000 cells per well. After 24 hours of plating, cells were treated with increasing doses of compound ranging from 1 μM to 80 μM. Relative cell numbers were analyzed after 48 hours using a 3-(4,5-dimethylthiazol-2-yl)-5-(3-carboxymethoxyphenyl)-2-(4-sulfophenyl)-2H-tetrazolium (MTS) assay (Promega) according to the manufacturer's directions.
LNCaP cells were treated with increasing doses of Target compound and cell viability was measured at 48 hours by MTS analysis.
The cell viability data was analyzed with GraphPad Prism software. The values were log transformed and analyzed with nonlinear regression (curve-fit) using log(inhibitor) vs. response variable slope (four parameters) and constraining the bottom to equal zero.

[1] = biological target: T1, Human Pregnane X Receptor (PXR, NR1I2) (Homo sapiens, UniProt O75469); test: PXR activation assay (Puracyp DPX2-96-001); type: cell-based
T1 construct: host or cells: DPX2 cells of the kit
T1 sequence (O75469 1-434): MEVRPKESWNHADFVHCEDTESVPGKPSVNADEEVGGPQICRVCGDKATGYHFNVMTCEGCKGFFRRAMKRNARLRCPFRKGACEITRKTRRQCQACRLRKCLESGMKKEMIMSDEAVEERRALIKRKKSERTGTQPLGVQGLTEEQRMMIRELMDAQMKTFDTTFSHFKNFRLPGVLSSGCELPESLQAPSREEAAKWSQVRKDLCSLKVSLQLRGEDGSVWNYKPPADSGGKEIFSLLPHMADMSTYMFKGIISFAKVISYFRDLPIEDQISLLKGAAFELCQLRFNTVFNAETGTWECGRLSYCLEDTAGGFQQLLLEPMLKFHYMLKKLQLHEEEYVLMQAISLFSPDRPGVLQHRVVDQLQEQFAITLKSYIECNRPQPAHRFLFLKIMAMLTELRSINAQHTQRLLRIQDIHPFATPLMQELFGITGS
Source text: PXR is a nuclear hormone receptor involved in the transcriptional regulation of a number of metabolic enzymes (e.g. CYP3A4) and transporters (e.g. PGP). Its activation by xenobiotic substances leads to upregulation of those metabolic enzymes and transporters and consequent removal of those substances from systemic circulation. It is not uncommon to find that drugs activate the PXR receptor with problematic consequences. […] In addition, if the drug itself is metabolized by, for example, CYP3A4, then there can be reduced exposure of the drug on repeated administration (auto-induction). It is thus considered beneficial to eliminate or at least minimize PXR activation if drug candidates. For drug series where PXR activation is significant, PXR activation is generally treated as a key criterion for optimization and advancement (V. Chu et al., Drug Metab. Dispos. 37, 1339 (2009).
PXR activation assay was performed according to manufacturer's instructions (Puracyp, Inc, Catalog #DPX2-96-001).

[2] = Concentration observed is at 10 μM

SMILES	GI50 (LNCaP cells; Homo sapiens, LNCaP, 48 h)	Maximum fold activation observed (Average) [1, 2]	Percent positive control response [1, 2]	Percent positive control response ([1]; @30 μM)	GI50 (LNCaP cells; 48 hours)
N=[S@](=O)(N[C@@H]1CCC[C@H](N2c3ccccc3Oc3ccccc32)[C@H]1O)c1ccc(OC(F)(F)F)cc1 (relative stereo) [Target T11-1]	16.7 µM	4.57	24.2%		
N=[S@@](=O)(N[C@@H]1CCC[C@H](N2c3ccccc3Oc3ccccc32)[C@H]1O)c1ccc(OC(F)(F)F)cc1 (relative stereo) [Target T11-2]	16.8 µM	4.82	26%		
N=[S@](=O)(N[C@@H]1COC[C@H](N2c3ccccc3Oc3ccccc32)[C@H]1O)c1ccc(OC(F)(F)F)cc1 (relative stereo) [Target T14-1]	25.6 µM	6.21		35.4 @30 μM %	
N=[S@@](=O)(N[C@@H]1COC[C@H](N2c3ccccc3Oc3ccccc32)[C@H]1O)c1ccc(OC(F)(F)F)cc1 (relative stereo) [Target T14-2]	25.6 µM	4.12	21.2%		
CN=[S@](=O)(N[C@@H]1COC[C@H](N2c3ccccc3Oc3ccccc32)[C@H]1O)c1ccc(OC(F)(F)F)cc1 (relative stereo) [Target T15-1]	16.6 µM	3.89	19.6%		
CN=[S@@](=O)(N[C@@H]1COC[C@H](N2c3ccccc3Oc3ccccc32)[C@H]1O)c1ccc(OC(F)(F)F)cc1 (relative stereo) [Target T15-2]	23.6 µM	7.15	41.8%		
N=[S@](=O)(N[C@@H]1COC[C@H](n2c3ccc(Cl)cc3c3cc(Cl)ccc32)[C@H]1O)c1ccc(OC(F)(F)F)cc1 (relative stereo) [Target T17-1]	10.2 µM	2.43	9.75%		
N=[S@@](=O)(N[C@@H]1COC[C@H](n2c3ccc(Cl)cc3c3cc(Cl)ccc32)[C@H]1O)c1ccc(OC(F)(F)F)cc1 (relative stereo) [Target T17-2]	9.64 µM	2.45	9.88%		
CN=[S@](=O)(N[C@@H]1COC[C@H](n2c3ccc(Cl)cc3c3cc(Cl)ccc32)[C@H]1O)c1ccc(OC(F)(F)F)cc1 (relative stereo) [Target T18-1]	8.53 µM	1.79	5.37%		
CN=[S@@](=O)(N[C@@H]1COC[C@H](n2c3ccc(Cl)cc3c3cc(Cl)ccc32)[C@H]1O)c1ccc(OC(F)(F)F)cc1 (relative stereo) [Target T18-2]	12.2 µM	2.36	9.23%		
N=[S@@](=O)(NC[C@H](O)CN1c2ccccc2CCc2ccccc21)c1ccc(OC(F)(F)F)cc1 (single isomer, unassigned) [Target T5d1]	25.8 µM				
N=[S@](=O)(NC[C@H](O)CN1c2ccccc2CCc2ccccc21)c1ccc(OC(F)(F)F)cc1 (single isomer, unassigned) [Target T5d2]	20.2 µM				
CN=[S@@](=O)(NC[C@H](O)CN1c2ccccc2CCc2ccccc21)c1ccc(OC(F)(F)F)cc1 (single isomer, unassigned) [Target T6d1]	22.7 µM				
CN=[S@](=O)(NC[C@H](O)CN1c2ccccc2CCc2ccccc21)c1ccc(OC(F)(F)F)cc1 (single isomer, unassigned) [Target T6d2]	24.5 µM				
O=S(=O)(N[C@@H]1COC[C@H](N2c3ccccc3Oc3ccccc32)[C@H]1O)c1ccc(OC(F)(F)F)cc1 [T10 (DT-061), reference compound]	10.7 µM	17.3	89.8%		
O=S(=O)(N[C@@H]1COC[C@H](N2c3ccccc3Oc3ccccc32)[C@H]1O)c1ccc(OC(F)(F)F)cc1 [Target T13, reference compound]		11	57%		14.2 µM
O=S(=NCC1CC1)(N[C@@H]1COC[C@H](N2c3ccccc3Oc3ccccc32)[C@H]1O)c1ccc(OC(F)(F)F)cc1 (stereo partly drawn) [Target T15A, N-(cyclopropylmethyl)-N′-((3R,4R,5S)-4-hydroxy-5-(10H-phenoxazin-10-yl)tetrahydro-2H-pyran-3-yl)-4-(trifluoromethoxy) benzenesulfonimidoamide]	9.54 µM				
CCCN=S(=O)(N[C@@H]1COC[C@H](N2c3ccccc3Oc3ccccc32)[C@H]1O)c1ccc(OC(F)(F)F)cc1 (stereo partly drawn) [Target T15C, N-((3R,4R,5S)-4-hydroxy-5-(10H-phenoxazin-10-yl)tetrahydro-2H-pyran-3-yl)-N′-propyl-4-(trifluoromethoxy) benzenesulfonimidoamide]	55.4 µM				
O=S(=O)(N[C@@H]1COC[C@H](n2c3ccc(Cl)cc3c3cc(Cl)ccc32)[C@H]1O)c1ccc(OC(F)(F)F)cc1 [Target T16, reference compound]	8.2 µM	3.93	16.7%		

Reference: US20230020161A1, “Tricyclic Modulators of PP2A” (Rappta Therapeutics Oy, priority 2020, published 2023)
